Experiments:
[1] = target: T1, tPA (2 chain) (Homo sapiens, UniProt P00750); test: Determination of IC50 for various proteases: tPA; assay type: biochemical; conditions: tPA (2 chain) 40 nM, substrate S-2288 0.5 mM; Mean ± SD
T1 construct: tPA (2 chain); purchased American diagnostic
Procedure: (§1) A 6 mM solution of the test compound in DMSO was prepared. In a V-bottom micro plate the 6 mM compound solution was diluted 6 times in DMSO to obtain a concentration row with the following concentrations: 6 mM, 1.8 mM, 540 μM, 162 μM, 48.8 μM, 14.4 μM, and 4 μM. From this DMSO master plate 1:20 dilutions in 10 mM MOPS pH 8.3 were prepared to obtain solutions of 300, 90, 27, 8.1, 2.44, 0.72 and 0.22 μM in MOPS buffer and 5% DMSO.
(§2) 100 μl of this solution were pipetted into a flat bottom 96 well microplate and placed into a Tecan infinite 200 plate reader. Before measurement, 50 μl of protease solution and, subsequently 50 μl substrate solution were added by the machine. The liberation of free para nitroanilide was detected at 405 nm. The protease solution was freshly prepared by diluting to the desired concentration from a stock solution in 60 mM MOPS; 600 mM NaCl; 20 mM CaCl2; 10% DMSO; 0.4% PEG 6000 pH 8.3. The substrate solution was prepared by dissolving the solid substrate in an adequate amount of water to get the desired concentrations. The used protease and substrate solutions are given below:
(§3) All enzymes except trypsin were from human origin (American diagnostic). Trypsin was hog trypsin (Sigma Aldrich). Substrates were purchased from Chromogenix. […]

[2] = target: T2, uPA (Homo sapiens, UniProt P00749); test: Determination of IC50 for various proteases: uPA; assay type: biochemical; conditions: uPA 40 nM, substrate S-2288 0.5 mM; Mean ± SD
T2 construct: purchased American diagnostic
Procedure: as §1, §2, §3

[3] = target: T3, Trypsin (Sus scrofa, UniProt P00761); test: Determination of IC50 for various proteases (chromogenic substrate, pNA release at 405 nm): trypsin; assay type: biochemical; conditions: hog trypsin 2 nM, substrate S-2222 0.5 mM; Mean ± SD
T3 construct: purchased Sigma Aldrich
T3 sequence (P00761 9-231): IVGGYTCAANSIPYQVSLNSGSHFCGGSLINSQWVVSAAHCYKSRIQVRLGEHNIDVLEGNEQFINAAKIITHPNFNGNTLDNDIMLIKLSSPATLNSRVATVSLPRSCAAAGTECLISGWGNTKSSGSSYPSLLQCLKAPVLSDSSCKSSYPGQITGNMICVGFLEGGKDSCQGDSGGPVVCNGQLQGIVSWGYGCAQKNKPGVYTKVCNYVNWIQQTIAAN
Procedure: as §1, §2, §3

[4] = target: T4, Plasmin (Homo sapiens, UniProt P00747); test: Determination of IC50 for various proteases: plasmin; assay type: biochemical; conditions: plasmin 8 nM, substrate S-2288 0.5 mM; Mean ± SD
T4 construct: purchased American diagnostic
T4 sequence (P00747 581-810 limits assumed): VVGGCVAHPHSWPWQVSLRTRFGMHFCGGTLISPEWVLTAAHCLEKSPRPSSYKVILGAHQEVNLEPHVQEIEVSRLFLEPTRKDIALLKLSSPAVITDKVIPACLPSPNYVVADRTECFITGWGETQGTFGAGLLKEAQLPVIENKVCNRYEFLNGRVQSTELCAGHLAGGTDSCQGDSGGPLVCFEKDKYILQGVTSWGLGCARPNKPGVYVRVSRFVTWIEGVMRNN
T4 sequence (P00747 97-580 partner limits assumed): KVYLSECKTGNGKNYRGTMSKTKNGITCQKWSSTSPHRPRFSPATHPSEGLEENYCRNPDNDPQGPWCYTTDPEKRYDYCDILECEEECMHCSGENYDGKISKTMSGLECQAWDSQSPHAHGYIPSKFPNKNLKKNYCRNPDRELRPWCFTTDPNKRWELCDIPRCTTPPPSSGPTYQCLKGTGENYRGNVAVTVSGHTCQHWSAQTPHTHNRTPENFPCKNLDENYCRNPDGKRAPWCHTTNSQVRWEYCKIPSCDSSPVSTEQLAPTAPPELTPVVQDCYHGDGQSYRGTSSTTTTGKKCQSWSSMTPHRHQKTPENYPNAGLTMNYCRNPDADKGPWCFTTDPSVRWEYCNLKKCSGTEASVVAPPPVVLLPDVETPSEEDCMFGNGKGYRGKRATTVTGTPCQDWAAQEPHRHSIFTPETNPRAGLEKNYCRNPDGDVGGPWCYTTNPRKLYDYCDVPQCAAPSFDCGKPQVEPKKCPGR
Procedure: as §1, §2, §3

[5] = target: T5, Thrombin (Homo sapiens, UniProt P00734); test: Determination of IC50 for various proteases: thrombin; assay type: biochemical; conditions: thrombin 6 nM, substrate S-2266 0.5 mM; Mean ± SD
T5 construct: purchased American diagnostic
Procedure: as §1, §2, §3

[6] = tested on: C-terminal agrin fragment (CAF); test: Analysis of serum CAF levels by western blotting in treated mice; assay type: in vivo, C57/BL6 mice; conditions: mouse serum pools, 25 mg/kg x 3 s.c., 5 h after last injection, western blot normalized to vehicle
Procedure: Adult (P50) C57/BL6 mice from Charles River were used for the experiments. All animal experiments are performed in accordance with international guidelines for proper conduct of animal experiment under jurisdiction of the Swiss law (Permit number ZH-18/2008). For every mouse in the experiment the well-being during the interventions is documented in a score sheet.
Three adult mice were treated with 2.5 ml/kg of a 10 mg/ml solution of the compound of Example 1 in 100% DMSO. This corresponds to a dose of 25 mg/kg active ingredient. As vehicle control, 3 mice were treated with 2.5 ml/kg of 100% DMSO. Each mouse received three subcutaneous injections. Between dose 1 and dose 2 there were 8 h, between dose 2 and dose 3 16 h. 5 h after the last injection the mice were euthanatized with CO2.
Before the first injection the mice were weighted and ˜100 μl of blood was collected from the lateral tail vein. Serum was prepared with centrifugation of blood samples in Microvette 500 Z-Gel tubes (10,000 g, 20° C., 5 min). […]
After staining for CAF the membrane was washed thoroughly and reused for a staining for endogenous mouse antibodies that served as loading control. […] After imaging with a Stella imaging system (Raytest) the intensity of the CAF bands was measured with AIDA picture analysis software (Raytest) and normalized to the loading levels determined from mouse antibody light chains. […]

[7] = target: T6, Factor Xa (Homo sapiens, UniProt P00742); test: Determination of IC50 for various proteases: Factor Xa; assay type: biochemical; conditions: Factor Xa 5 nM, substrate S-2288 0.5 mM; Mean ± SD
T6 construct: purchased American diagnostic
T6 sequence (P00742 235-488 limits assumed): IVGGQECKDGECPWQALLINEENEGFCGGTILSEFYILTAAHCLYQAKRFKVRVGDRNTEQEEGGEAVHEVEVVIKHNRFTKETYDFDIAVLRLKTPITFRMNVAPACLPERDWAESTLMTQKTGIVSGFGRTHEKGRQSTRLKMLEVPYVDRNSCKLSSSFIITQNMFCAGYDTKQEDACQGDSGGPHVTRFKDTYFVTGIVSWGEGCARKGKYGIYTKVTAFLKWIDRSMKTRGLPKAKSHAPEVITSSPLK
T6 sequence (P00742 41-179 partner limits assumed): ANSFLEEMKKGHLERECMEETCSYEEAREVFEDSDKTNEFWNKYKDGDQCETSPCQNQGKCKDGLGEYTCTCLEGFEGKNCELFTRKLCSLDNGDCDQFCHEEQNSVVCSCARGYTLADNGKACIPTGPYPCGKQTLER
Procedure: as §1, §2, §3

T1 sequence (P00750 311-562 limits assumed): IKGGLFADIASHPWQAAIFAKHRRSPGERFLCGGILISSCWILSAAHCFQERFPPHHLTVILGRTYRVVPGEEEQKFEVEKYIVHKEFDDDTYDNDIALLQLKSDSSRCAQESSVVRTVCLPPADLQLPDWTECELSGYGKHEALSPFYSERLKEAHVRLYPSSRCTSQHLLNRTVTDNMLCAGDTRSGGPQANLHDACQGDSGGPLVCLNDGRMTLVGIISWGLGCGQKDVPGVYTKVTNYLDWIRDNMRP
T1 sequence (P00750 36-310 partner limits assumed): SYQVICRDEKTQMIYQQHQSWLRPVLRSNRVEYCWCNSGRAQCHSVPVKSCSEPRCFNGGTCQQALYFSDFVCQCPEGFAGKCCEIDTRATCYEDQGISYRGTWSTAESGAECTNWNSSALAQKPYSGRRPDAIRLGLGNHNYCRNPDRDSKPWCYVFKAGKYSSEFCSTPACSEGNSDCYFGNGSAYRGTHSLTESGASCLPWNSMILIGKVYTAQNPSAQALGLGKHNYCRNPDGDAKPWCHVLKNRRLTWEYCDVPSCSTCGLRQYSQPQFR

IC50 [1]: > 150 µM | IC50 [2]: > 150 µM | IC50 [3]: > 150 µM | IC50 [4]: > 150 µM | IC50 [5]: > 150 µM | IC50 [7]: 84.8 ± 46.4 µM
SMILES: O=C(Nc1ccc(C(=O)Nc2ccc(Cl)cc2)c(O)c1)c1ccc(-c2nc3cc(Cl)c(Cl)cc3[nH]2)cc1 [Example 1, N-(4-Chlorophenyl)-4-(4-(5,6-dichloro-1H-benzo[d]imidazol-2-yl)benzamido)-2-hydroxybenzamide]
Average CAF levels [6]: 66.6 % of vehicle
